Key:
[1] = In vitro drug release from pessaries, USP Method XXIII Apparatus 2; format: physicochemical; settings: 37° C., 50 rpm
Method: The drug loaded polymer were analysed for in vitro drug release following USP Method XXIII, Apparatus 2 at 37° C., with 50 rpm paddle speed. Drug release was analysed by ultraviolet spectroscopy or high pressure liquid chromatography (HPLC) as appropriate.
Rate of drug release k values of each dissolution profile was determined by calculating the slope of graph % drug release versus square root time. All the linear relationship between % drug release and square root time has R^2 correlation value […].

[2] = cited from earlier work
[3] = from A03003 (CLP) cross-linked polymer pessaries
[4] = from A03030 (LP) linear polymer pessaries
[5] = from A03032 (LP) linear polymer pessaries

SMILES	Rate of drug release, k [1, 3]	Rate of drug release, k [1, 4]	Rate of drug release, k [1, 5]	Drug solubility (in water), in words [2]	Rate of drug release, k ([1]; from A03033 (LP) linear polymer pessaries)
CC[C@H](C)[C@@H]1NC(=O)[C@H](Cc2ccc(O)cc2)NC(=O)[C@@H](N)CSSC[C@@H](C(=O)N2CCC[C@H]2C(=O)N[C@@H](CC(C)C)C(=O)NCC(N)=O)NC(=O)[C@H](CC(N)=O)NC(=O)[C@H](CCC(N)=O)NC1=O [OXY, Oxytocin]	6.749 minute^−0.5	7.875 minute^−0.5	7.85 minute^−0.5	–	–
CC(C)(C)NCC(O)c1cc(O)cc(O)c1 (centres unmarked) [TBS, Terbutaline sulphate]	13.628 minute^−0.5	13.262 minute^−0.5	11.954 minute^−0.5	Soluble	–
CC(=O)[C@H]1CC[C@H]2[C@@H]3CCC4=CC(=O)CC[C@]4(C)[C@H]3CC[C@]12C [PRO, Progesterone]	2.414 minute^−0.5	–	–	Insoluble	1.256 minute^−0.5
CCCCC(C)(O)C/C=C/[C@H]1[C@H](O)CC(=O)[C@@H]1CCCCCCC(=O)OC (mixture of isomers) [MIS, misoprostol]	–	–	–	Insoluble	–

From patent publication US9987364B2, “Water-swellable polymers” (Ferring B.V., priority 2002, dated 2018)
